In patent US8574563B2 (Bristol-Myers Squibb Company, priority 2006, dated 2013):

Tested on: HCV 1b-377-neo replicon cells
Assay: HCV replicon assay, HCV 1b-377-neo replicon cells (1b FRET)
Format: cell-based, Hepatitis C virus genotype 1b
Conditions: Hepatitis C virus, HCV 1b-377-neo replicon cells; HCV 1b genotype; read-out: EC50 range against HCV 1b (Table 2, Range)
Summary of the method: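 FRET-based replicon assay in HCV 1b-377-neo cells, including a comparison line carrying the NS5A Y2065H mutation that confers resistance to a reference compound.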

Compared with CNC(=O)N[C@@H](C(=O)N1CCC[C@H]1c1ncc(-c2ccc(-c3ccc(-c4cnc([C@@H]5CCCN5C(=O)[C@H](NC(=O)NC)c5ccccc5)[nH]4)cc3)cc2)[nH]1)c1ccccc1 [Example 24-4b, N′,N′′′-(4,4′-biphenyldiylbis(1H-imidazole-5,2-diyl(2S)-2,1-pyrrolidinediyl((1R)-2-oxo-1-phenyl-2,1-ethanediyl)))bis(1-methylurea)], COC(=O)N[C@@H](C(=O)N1CCC[C@H]1c1ncc(-c2ccc(-c3ccc(-c4cnc([C@@H]5CCCN5C(=O)[C@H](O)c5ccccc5)[nH]4)cc3)cc2)[nH]1)c1ccccc1 [Example 43, methyl ((1R)-2-((2S)-2-(5-(4′-(2-((2S)-1-((2R)-2-hydroxy-2-phenylacetyl)-2-pyrrolidinyl)-1H-imidazol-5-yl)-4-biphenylyl)-1H-imidazol-2-yl)-1-pyrrolidinyl)-2-oxo-1-phenylethyl)carbamate] is lower in EC50: 1 to 99 nM for the first, 0.001 to 0.999 nM for the second. The second is the more potent here.

First: CCN(CC)[C@@H](C(=O)N1CCC[C@H]1c1ncc(-c2ccc(-c3ccc(-c4cnc([C@@H]5CCCN5C(=O)[C@@H](NC(=O)OC)C(C)C)[nH]4)cc3)cc2)[nH]1)C(C)C [Example M79, methyl ((1S)-1-(((2S)-2-(5-(4′-(2-((2S)-1-(N,N-diethyl-D-valyl)-2-pyrrolidinyl)-1H-imidazol-5-yl)-4-biphenylyl)-1H-imidazol-2-yl)-1-pyrrolidinyl)carbonyl)-2-methylpropyl)carbamate]
Second: COC(=O)N[C@H](C(=O)N1CCC[C@H]1c1ncc(-c2ccc(-c3ccc(-c4cnc([C@@H]5CCCN5C(=O)CNCC(C)C)[nH]4)cc3)cc2)[nH]1)C(C)C [LS23, methyl ((1S)-1-(((2S)-2-(5-(4′-(2-((2S)-1-(N-isobutylglycyl)-2-pyrrolidinyl)-1H-imidazol-5-yl)-4-biphenylyl)-1H-imidazol-2-yl)-1-pyrrolidinyl)carbonyl)-2-methylpropyl)carbamate]
The EC50 of the first is higher: 1 to 99 nM for the first, 0.001 to 0.999 nM for the second.

COC(=O)N[C@@H](C(=O)N1CC(F)(F)C[C@H]1c1nc(-c2ccc(-c3ccc(-c4cnc([C@@H]5CC(F)(F)CN5C(=O)[C@H](NC(=O)OC)c5ccccc5)[nH]4)cc3)cc2)c[nH]1)c1ccccc1 [Example 24-9, dimethyl (4,4′-biphenyldiylbis(1H-imidazole-4,2-diyl((2S)-4,4-difluoro-2,1-pyrrolidinediyl)((1R)-2-oxo-1-phenyl-2,1-ethanediyl)))biscarbamate] and COC(=O)N[C@@H](C(=O)N1CCC[C@H]1c1ncc(-c2ccc(-c3ccc(-c4cnc([C@@H]5CCCN5C(=O)[C@H](OC(C)=O)c5ccccc5)[nH]4)cc3)cc2)[nH]1)c1ccccc1 [Example 84-82, (1R)-2-((2S)-2-(5-(4′-(2-((2S)-1-((2R)-2-((methoxycarbonyl)amino)-2-phenylacetyl)-2-pyrrolidinyl)-1H-imidazol-5-yl)-4-biphenylyl)-1H-imidazol-2-yl)-1-pyrrolidinyl)-2-oxo-1-phenylethyl acetate] fall in the same range of EC50: 0.001 to 0.999 nM for the first, 0.001 to 0.999 nM for the second.

COC(=O)N[C@H](C(=O)N1CCC[C@H]1c1ncc(-c2ccc(-c3ccc(-c4c[nH]c([C@@H]5CCCN5C(=O)[C@@H](NC(=O)OC)C5CC5)n4)c(F)c3)cc2F)[nH]1)C(C)C [Example D55, methyl ((1S)-1-cyclopropyl-2-((2S)-2-(5-(3,3,-difluoro-4′-(2-((2S)-1-(N-(methoxycarbonyl)-L-valyl)-2-pyrrolidinyl)-1H-imidazol-5-yl)-4-biphenylyl)-1H-imidazol-2-yl)-1-pyrrolidinyl)-2-oxoethyl)carbamate] and COC(=O)N[C@H](C(=O)N1CCC[C@H]1c1nc(-c2ccc(-c3ccc(-c4c[nH]c([C@@H]5CCCN5C(=O)[C@@H](NC(=O)O[C@H]5CCOC5)C(C)C)n4)cc3)cc2)c[nH]1)C(C)C [Example F54, (3S)-tetrahydro-3-furanyl ((1S)-1-(((2S)-2-(4-(4′-(2-((2S)-1-(N-(methoxycarbonyl)-L-valyl)-2-pyrrolidinyl)-1H-imidazol-4-yl)-4-biphenylyl)-1H-imidazol-2-yl)-1-pyrrolidinyl)carbonyl)-2-methylpropyl)carbamate] fall in the same range of EC50: 0.001 to 0.999 nM for the first, 0.001 to 0.999 nM for the second.

First: COC(=O)N[C@@H](C)C(=O)N1CCC[C@H]1c1ncc(-c2ccc(-c3ccc(-c4cnc([C@@H]5CCCN5C(=O)[C@@H](Nc5ncccn5)C(C)C)[nH]4)cc3)cc2)[nH]1 [cj-11a, methyl ((1S)-1-methyl-2-oxo-2-((2S)-2-(5-(4′-(2-((2S)-1-(N-2-pyrimidinyl-L-valyl)-2-pyrrolidinyl)-1H-imidazol-5-yl)-4-biphenylyl)-1H-imidazol-2-yl)-1-pyrrolidinyl)ethyl)carbamate]
Second: COC(=O)N[C@H](C(=O)N1CCC[C@H]1c1ncc(-c2ccc(-c3ccc(-c4cnc([C@@H]5CCCN5C(=O)[C@@H](N)C(C)(C)O)[nH]4)cc3)cc2)[nH]1)C(C)C [Example M104, methyl ((1S)-1-(((2S)-2-(5-(4′-(2-((2S)-1-(3-hydroxy-L-valyl)-2-pyrrolidinyl)-1H-imidazol-5-yl)-4-biphenylyl)-1H-imidazol-2-yl)-1-pyrrolidinyl)carbonyl)-2-methylpropyl)carbamate]
The EC50 of the first is lower: 0.001 to 0.999 nM for the first, 100 to 999 nM for the second. The first is the more potent here.

COC(=O)N[C@@H](C)C(=O)N1CCC[C@H]1c1ncc(-c2ccc(-c3ccc(-c4cnc([C@@H]5CCCN5C(=O)[C@@H](c5ccccc5)N5CCCC5)[nH]4)cc3)cc2)[nH]1 [Example 101, methyl ((1S)-1-methyl-2-oxo-2-((2S)-2-(5-(4′-(2-((2S)-1-((2R)-2-phenyl-2-(1-pyrrolidinyl)acetyl)-2-pyrrolidinyl)-1H-imidazol-5-yl)-4-biphenylyl)-1H-imidazol-2-yl)-1-pyrrolidinyl)ethyl)carbamate] and O=C(c1ccccc1F)N1CCC[C@H]1c1ncc(-c2ccc(-c3ccc(-c4cnc([C@@H]5CCCN5C(=O)[C@@H](c5ccccc5)N5CCCCC5)[nH]4)cc3)cc2)[nH]1 [Example 107-3, 1-((1R)-2-((2S)-2-(5-(4′-(2-((2S)-1-(2-fluorobenzoyl)-2-pyrrolidinyl)-1H-imidazol-5-yl)-4-biphenylyl)-1H-imidazol-2-yl)-1-pyrrolidinyl)-2-oxo-1-phenylethyl) piperidine] fall in the same range of EC50: 0.001 to 0.999 nM for the first, 0.001 to 0.999 nM for the second.

First: COC(=O)N[C@@H](C(=O)N1CCC[C@H]1c1ncc(-c2ccc(-c3ccc(-c4cnc([C@@H]5CCCN5C(=O)C5CCN(C)CC5)[nH]4)cn3)cc2)[nH]1)c1ccccc1 [Example 142, methyl ((1R)-2-((2S)-2-(5-(4-(5-(2-((2S)-1-((1-methyl-4-piperidinyl)carbonyl)-2-pyrrolidinyl)-1H-imidazol-5-yl)-2-pyridinyl)phenyl)-1H-imidazol-2-yl)-1-pyrrolidinyl)-2-oxo-1-phenylethyl)carbamate]
Second: CN(C)[C@@H](C(=O)N1CCC[C@H]1c1ncc(-c2ccc(-c3ccc(-c4cnc([C@@H]5CCCN5C(=O)[C@@H]5CCN(Cc6ccccc6)C5)[nH]4)cc3)cc2)[nH]1)c1ccccc1 [Example 94-17, (1R)-2-((2S)-2-(5-(4′-(2-((2S)-1-(((3R)-1-benzyl-3-pyrrolidinyl)carbonyl)-2-pyrrolidinyl)-1H-imidazol-5-yl)-4-biphenylyl)-1H-imidazol-2-yl)-1-pyrrolidinyl)-N,N-dimethyl-2-oxo-1-phenylethanamine]
The EC50 of the first is higher: 1 to 99 nM for the first, 0.001 to 0.999 nM for the second.

First: CN(C)[C@@H](C(=O)N1CCC[C@H]1c1ncc(-c2ccc(-c3cnc(-c4cnc([C@@H]5CCCN5C(=O)[C@@H](c5ccccc5)N(C)C)[nH]4)cn3)cc2)[nH]1)c1ccccc1 [Example 152j-7, (1R)-2-((2S)-2-(5-(5-(4-(2-((2S)-1-((2R)-2-(dimethylamino)-2-phenylacetyl)-2-pyrrolidinyl)-1H-imidazol-5-yl)phenyl)-2-pyrazinyl)-1H-imidazol-2-yl)-1-pyrrolidinyl)-N,N-dimethyl-2-oxo-1-phenylethanamine]
Second: C[C@H](NC(=O)[C@@H](c1ccccc1)N(C)C)c1ncc(-c2cnc(-c3ccc(-c4cnc([C@@H]5CCCN5C(=O)[C@@H](c5ccccc5)N(C)C)[nH]4)cc3)cn2)[nH]1 [Example 152j-18, (2R)-2-(dimethylamino)-N-((1S)-1-(5-(5-(4-(2-((2S)-1-((2R)-2-(dimethylamino)-2-phenylacetyl)-2-pyrrolidinyl)-1H-imidazol-5-yl)phenyl)-2-pyrazinyl)-1H-imidazol-2-yl)ethyl)-2-phenylacetamide]
The EC50 of the first is higher: 1 to 99 nM for the first, 0.001 to 0.999 nM for the second.

Compared with CCN(CC)[C@@H](C(=O)N1C[C@@H](F)C[C@H]1c1ncc(-c2ccc(-c3ccc(-c4cnc([C@@H]5C[C@H](F)CN5C(=O)[C@@H](c5ccccc5)N(CC)CC)[nH]4)cc3)cc2)[nH]1)c1ccccc1 [Example 24-6], CC(=O)N[C@@H](C(=O)N1CCC[C@H]1c1ncc(-c2ccc(-c3ccc(-c4cnc([C@@H]5CCCN5C(=O)[C@H](NC(C)=O)C(C)C)[nH]4)cc3)cc2)[nH]1)C(C)C [Example 27, N-((1R)-1-(((2S)-2-(5-(4′-(2-((2S)-1-((2R)-2-acetamido-3-methylbutanoyl)-2-pyrrolidinyl)-1H-imidazol-5-yl)-4-biphenylyl)-1H-imidazol-2-yl)-1-pyrrolidinyl)carbonyl)-2-methylpropyl)acetamide] is higher in EC50: 0.001 to 0.999 nM for the first, 1 to 99 nM for the second. The first is the more potent here.

COC(=O)N[C@@H](C(=O)N[C@@H](C)c1ncc(-c2ccc(-c3ccc(-c4cnc([C@H](C)NC(=O)[C@H](NC(=O)OC)c5ccccc5)[nH]4)cn3)nc2)[nH]1)c1ccccc1 [Example 153c-7, dimethyl (2,2′-bipyridine-5,5′-diylbis(1H-imidazole-5,2-diyl(1S)-1,1-ethanediylimino((1R)-2-oxo-1-phenyl-2,1-ethanediyl)))biscarbamate] and O=C([C@@H](O)C1CCCCC1)N1CCC[C@H]1c1ncc(-c2ccc(-c3ccc(-c4cnc([C@@H]5CCCN5C(=O)[C@@H](O)C5CCCCC5)[nH]4)cc3)cc2)[nH]1 [LS2, (1S,1′S)-2,2′-(4,4′-biphenyldiylbis(1H-imidazole-5,2-diyl(2S)-2,1-pyrrolidinediyl))bis(1-cyclohexyl-2-oxoethanol)] fall in the same range of EC50: 1 to 99 nM for the first, 1 to 99 nM for the second.
